The text below walks through data of patent US20090137499A1, “BENZYLPHENYL GLUCOPYRANOSIDE DERIVATIVE” (priority 2006, published 2009).

As a reminder, the IC50 is the concentration that gives 50% inhibition. Higher therefore signals weaker potency.

The assay has as its target T1, human SGLT1 (Homo sapiens, UniProt P13866).
T1 construct: expressed in transfected cells
T1 sequence (P13866 1-664): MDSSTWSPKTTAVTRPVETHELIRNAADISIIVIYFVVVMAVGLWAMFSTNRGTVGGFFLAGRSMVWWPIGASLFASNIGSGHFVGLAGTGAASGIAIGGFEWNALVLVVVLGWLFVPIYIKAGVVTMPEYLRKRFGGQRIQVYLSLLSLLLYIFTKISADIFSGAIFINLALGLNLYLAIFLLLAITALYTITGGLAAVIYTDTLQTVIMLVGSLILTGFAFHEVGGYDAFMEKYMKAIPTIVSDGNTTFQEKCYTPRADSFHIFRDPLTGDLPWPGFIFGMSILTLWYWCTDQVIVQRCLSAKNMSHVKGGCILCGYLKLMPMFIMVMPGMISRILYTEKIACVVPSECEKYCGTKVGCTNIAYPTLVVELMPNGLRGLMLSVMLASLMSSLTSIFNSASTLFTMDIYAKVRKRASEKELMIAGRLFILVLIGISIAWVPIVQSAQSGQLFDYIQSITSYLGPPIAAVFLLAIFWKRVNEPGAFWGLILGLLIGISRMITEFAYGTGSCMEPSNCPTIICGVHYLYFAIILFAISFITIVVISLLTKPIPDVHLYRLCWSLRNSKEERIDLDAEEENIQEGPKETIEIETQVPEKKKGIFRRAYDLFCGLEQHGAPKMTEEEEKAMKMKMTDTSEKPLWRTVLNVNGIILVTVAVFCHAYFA
Put plainly: Determination of SGLT1 inhibiting activity using human SGLT1 expressing cell ([14C]-α-methyl-D-glucopyranoside uptake). The following applies: HEK-SGLT1 cells, 1 mM [14C]-α-methyl-D-glucopyranoside, 37° C., 30 min. The assay is classed as cell-based. Here is the method: Determination of SGLT1 Inhibiting Activity Using Human SGLT1 Expressing Cell
1) Preparation of Vector Expressing Human SGLT1 cDNA in Animal Cell
Amplification was performed by PCR using human SGLT1 cDNA clone (Origene: Clone Number, TC119918; GenBank accession number, NM 000343) as a template. The sense oligonucleotide primer for PCR was 5′-[…]-3′ (Primer 1: SEQ ID NO: 1 in the sequence listing),
and the antisense oligonucleotide primer was 5′-[…]-3′ (Primer 2: SEQ ID NO: 2 in the sequence listing).
The PCR product was subjected to agarose electrophoresis, then a target DNA fragment was recovered from a single band corresponding to 2013 bases, digested with restriction enzymes HindIII and XhoI, and introduced into the HindIII/XhoI site of vector pCMV-Script (Stratagene) to obtain SGLT1 expressing plasmid pCMV-SGLT1. A HindIII/XhoI fragment was excised from pCMV-SGLT1 and introduced into the BamHI/XhoI site of pENTR1A (Gateway, Invitrogen) to prepare pENTR-SGLT1. Retrovirus vector pLPCX (Clontech) into which Gateway Vector Conversion System Cassette A (Invitrogen) was introduced was used as the destination plasmid to prepare SGLT1 expressing retrovirus vector pLPCX-SGLT1.
2) Establishment of Human SGLT1 Expressing Cell
The retrovirus pLPCX-SGLT1 obtained in 1) was transfected into integrin αvβ3 expressing HEK-293 cells and, the cells were treated with antibiotic G418 (brand name, Geneticin: Invitrogen) and puromycin (Clontech) to obtain HEK-SGLT1 cells stably expressing the target vector having resistance. The stably expressing cells were cultured and maintained in DMEM medium containing […] G418, […] puromycin, 3 mM KGT-1075, and 10% FBS.
3) Determination of SGLT1 Inhibiting Activity
HEK-SGLT1 cells were suspended at a density of 10^6 cells/mL in DMEM medium containing […] G418, 1 mg/ml puromycin, and 10% FBS, and 100 μL was seeded in each well of a type 1 collagen-coated 96-well culture plate (Corning). On the following day, the medium was replaced with a sugar uptake buffer (10 mM HEPES [pH 7.5], 5 mM Tris-HCl [pH 7.5], 140 mM NaCl, 2 mM KCl, 1 mM CaCl2, 1 mM MgCl2), and the cells were cultured with 1 mM [^14C]-α-methyl-D-glucopyranoside (0.1 mCi) and the test compound at 37° C. for 30 min and then washed 3 times with a washing buffer (10 mM HEPES [pH 7.5], 5 mM Tris-HCl [pH 7.5], 140 mM choline chloride, 2 mM KCl, 1 mM CaCl2, 1 mM MgCl2). 100 μL of liquid scintillation cocktail (brand name, Supermix: Perkin-Elmer) was added to each well of the 96-well plate and stirred for 10 min, and then radioactivity was determined with micro β (Perkin-Elmer), a type of liquid scintillation counter. The value as the sugar uptake activity was obtained by deducting the radioactivity in the presence of an excess amount of an SGLT1 inhibiting compound as the background from each measured value, the inhibition rate (%) was calculated from the control sugar uptake activity obtained without using a test compound and the sugar uptake activity obtained using a test compound having a predetermined the concentration, and concentrations of the test compound at which the sugar uptake activity was inhibited by 50% were assessed.
As to `COc1ccc(Cc2ccc(CO)cc2O[C@@H]2O[C@H]([C@@H](C)O)[C@@H](O)[C@H](O)[C@H]2O)cc1` [Example 9, 2-(4-Methoxybenzyl)-5-hydroxymethylphenyl 7-deoxy-D-glycero-β-D-gluco-heptopyranoside], inhibition was half-maximal at 54 nM (IC50).
`COc1ccc(Cc2cc(CO)cnc2O[C@@H]2O[C@H]([C@@H](C)O)[C@@H](O)[C@H](O)[C@H]2O)cc1` [Example 38, 3-(4-Methoxybenzyl)-5-hydroxymethylpyridin-2-yl 7-deoxy-D-glycero-β-D-gluco-heptopyranoside] registered an IC50 of 207 nM.
Then `CCc1ccc(Cc2ccc(N)cc2O[C@@H]2O[C@H](C(C)O)[C@@](C)(O)[C@H](O)[C@H]2O)cc1` (stereo partly drawn) [Example 41, 5-Amino-2-(4-ethylbenzyl)phenyl 4-C-methyl-7-deoxy-glycero-β-D-gluco-heptapyranoside], with 87 nM; and `COc1ccc(Cc2c(Cl)cccc2O[C@@H]2O[C@H]([C@@H](C)O)[C@@H](O)[C@H](O)[C@H]2O)cc1` [Example 42, 3-Chloro-2-(4-methoxybenzyl)phenyl 7-deoxy-D-glycero-β-D-gluco-heptopyranoside], with 63 nM; and `COc1ccc(Cc2c(Cl)cc(C)cc2O[C@@H]2O[C@H]([C@@H](C)O)[C@@H](O)[C@H](O)[C@H]2O)cc1` [Example 43, 3-Chloro-5-methyl-2-(4-methoxybenzyl)phenyl 7-deoxy-D-glycero-β-D-gluco-heptopyranoside], with 212 nM.
Under `COc1ccc(Cc2c(Cl)cc(CO)cc2O[C@@H]2O[C@H]([C@@H](C)O)[C@@H](O)[C@H](O)[C@H]2O)cc1` [Example 44, 3-Chloro-5-hydroxymethyl-2-(4-methoxybenzyl)phenyl 7-deoxy-D-glycero-β-D-gluco-heptopyranoside] stands 29 nM; under `CCOc1ccc(Cc2c(Cl)cc(CO)cc2O[C@@H]2O[C@H]([C@@H](C)O)[C@@H](O)[C@H](O)[C@H]2O)cc1` [Example 45, 3-Chloro-2-(4-ethoxybenzyl)-5-hydroxymethyl-phenyl 7-deoxy-D-glycero-β-D-gluco-heptopyranoside], 118 nM.
In the case of `CCOc1ccc(Cc2c(F)cc(CO)cc2O[C@@H]2O[C@H]([C@@H](C)O)[C@@H](O)[C@H](O)[C@H]2O)cc1` [Example 46, 2-(4-Ethoxybenzyl)-3-fluoro-5-hydroxymethyl-phenyl 7-deoxy-D-glycero-β-D-gluco-heptopyranoside], the IC50 turned out to be 56 nM.
On to `CCc1ccc(Cc2c(F)cc(CO)cc2O[C@@H]2O[C@H]([C@@H](C)O)[C@@H](O)[C@H](O)[C@H]2O)cc1` [Example 47, 2-(4-Ethylbenzyl)-3-fluoro-5-hydroxymethyl-phenyl 7-deoxy-D-glycero-β-D-gluco-heptopyranoside], for which the IC50 stood at 66 nM. The IC50 values of the last two compounds are within 1.5-fold of each other.
Then `COc1ccc(Cc2c(Cl)cc(CO)cc2O[C@@H]2O[C@H]([C@H](C)O)[C@@H](O)[C@H](O)[C@H]2O)cc1` [Example 57, 3-Chloro-5-hydroxymethyl-2-(4-methoxybenzyl)phenyl 7-deoxy-L-glycero-β-D-gluco-heptopyranoside], with 217 nM; and `C[C@@H](O)[C@H]1O[C@@H](Oc2cc(CO)ccc2Cc2ccc(OC3CC3)cc2)[C@H](O)[C@@H](O)[C@@H]1O` [Example 60, 2-(4-Cyclopropyloxybenzyl)-5-hydroxymethylphenyl 7-deoxy-D-glycero-β-D-gluco-heptopyranoside], with 81 nM.
In turn, `C[C@@H](O)[C@H]1O[C@@H](Oc2cc(CO)ccc2Cc2ccc(C3CC3)cc2)[C@H](O)[C@@H](O)[C@@H]1O` [Example 62, 2-(4-Cyclopropylbenzyl)-5-hydroxymethylphenyl 7-deoxy-D-glycero-β-D-gluco-heptopyranoside] registered an IC50 of 155 nM.
For the compound `C[C@@H](O)[C@H]1O[C@@H](Oc2cc(CO)cc(F)c2Cc2ccc(OC3CC3)cc2)[C@H](O)[C@@H](O)[C@@H]1O` [Example 63, 2-(4-Cyclopropoxybenzyl)-3-fluoro-5-hydroxymethyl-phenyl 7-deoxy-D-glycero-β-D-gluco-heptopyranoside], the IC50 was 68 nM.
Consider `CSc1ccc(Cc2ccc(CO)cc2O[C@@H]2O[C@H]([C@@H](C)O)[C@@H](O)[C@H](O)[C@H]2O)cc1` [Example 66, 5-Hydroxymethyl-2-(4-methylsulfanylbenzyl)phenyl 7-deoxy-D-glycero-β-D-gluco-heptopyranoside], for which inhibition was half-maximal at 214 nM (IC50).
As for `CCc1ccc(Cc2ccc(CCO)cc2O[C@@H]2O[C@H]([C@@H](C)O)[C@@H](O)[C@H](O)[C@H]2O)cc1` [Example 67, 2-(4-Ethylbenzyl)-5-(2-hydroxyethyl)phenyl 7-deoxy-D-glycero-β-D-gluco-heptopyranoside], the half-inhibitory concentration (IC50) is 491 nM.
Under `C[C@@H](O)[C@H]1O[C@@H](Oc2cc(CO)ccc2Cc2ccc(CCCO)cc2)[C@H](O)[C@@H](O)[C@@H]1O` [Example 68, 5-Hydroxymethyl-2-[4-(3-hydroxypropyl)benzyl]phenyl 7-deoxy-D-glycero-β-D-gluco-heptopyranoside] stands 123 nM; under `COc1ccc(Cc2c(C)cc(C)cc2O[C@@H]2O[C@H]([C@@H](C)O)[C@@H](O)[C@H](O)[C@H]2O)cc1F` [Example 69, 2-(3-Fluoro-4-methoxybenzyl)-3,5-dimethylphenyl 7-deoxy-D-glycero-β-D-gluco-heptopyranoside], 231 nM; under `Cc1cc(C)c(Cc2ccc(CCO)cc2)c(O[C@@H]2O[C@H]([C@@H](C)O)[C@@H](O)[C@H](O)[C@H]2O)c1` [Example 70, 2-[4-(2-Hydroxyethyl)benzyl]-3,5-dimethylphenyl 7-deoxy-D-glycero-β-D-gluco-heptopyranoside], 199 nM.
In turn, `CCCOc1ccc(Cc2c(F)cc(CO)cc2O[C@@H]2O[C@H]([C@@H](C)O)[C@@H](O)[C@H](O)[C@H]2O)cc1` [Example 74, 3-Fluoro-5-hydroxymethyl-2-(4-propoxybenzyl)phenyl 7-deoxy-D-glycero-β-D-gluco-heptopyranoside] gave an IC50 of 281 nM.
`CC(C)Oc1ccc(Cc2c(F)cc(CO)cc2O[C@@H]2O[C@H]([C@@H](C)O)[C@@H](O)[C@H](O)[C@H]2O)cc1` [Example 75, 3-Fluoro-5-hydroxymethyl-2-(4-isopropoxybenzyl)phenyl 7-deoxy-D-glycero-β-D-gluco-heptopyranoside] registered a half-maximal inhibitory concentration (IC50) of 269 nM.
Then `COc1ccc(Cc2c(C)cc(C)cc2O[C@@H]2O[C@H]([C@@H](C)O)[C@@H](O)[C@H](O)[C@H]2O)cc1` [Example 77, 3,5-Dimethyl-2-(4-methoxybenzyl)phenyl 7-deoxy-D-glycero-β-D-gluco-heptopyranoside], with 252 nM.
With `COc1ccc(Cc2ccc(CO)cc2O[C@@H]2O[C@H]([C@@H](C)O)[C@@H](O)[C@H](O)[C@H]2O)cc1F` [Example 78, 2-(3-Fluoro-4-methoxybenzyl)-5-hydroxymethylphenyl 7-deoxy-D-glycero-β-D-gluco-heptopyranoside], the half-maximal inhibitory concentration (IC50) came to 234 nM.
